Data set [1] in a line: In vitro hollow fiber model: pharmacokinetic parameters of meropenem and Compound I in the central compartment (Tables E, F). As to the method: (§1) In Vitro PK-PD Model: Six medium sized hollow-fiber cartridges (FiberCell Systems) were used per experiment. Three strains studied in duplicate were used for each experiment. Log-phase cells were inoculated and incubated for 2 hours prior to the start of treatment to achieve about 10^8 CFU/mL. Target PK parameters are listed in Tables E and F. The exposures were based on the published literatures disclosed in Example 2. Samples were collected from the central compartment for the determination of drug concentrations over a 32 hour period and were analyzed using an LC-MS/MS method.

The conditions of data set [2]: human, in vivo. The protocol: Forty one subjects were enrolled in 5 groups based on their degree of renal insufficiency. The five cohorts included: patients with normal renal function (CrCl≥90 ml/min), mild renal impairment (CrCl 60-89 ml/min), moderate renal impairment (CrCl 30-<60 ml/min), severe renal impairment (CrCl<30 ml/min, and patients with end stage renal disease requiring hemodialysis. Patients on renal replacement therapy other than standard hemodialysis (including continuous veno-venous hemofiltration, continuous veno-venous hemodialysis and continuous renal replacement therapy) were not studied.

The nature of data set [3]: Example 5: expected Compound I free drug 24 h AUC according to dosage regimen, by individual subject (Table B). More on the design: species or system human. As to conditions: for Expected Compound I free drug 24 h AUC: individual subjects. From the text:
Table B provides a summary of the analysis of different Compound I dosing regimens by individual subjects enrolled the study.

The test system of data set [4] is P. aeruginosa strains. The class given is cell-based, Pseudomonas aeruginosa. As to the method: The pharmacokinetics simulation was based on data from the clinical study disclosed in Example 2.
as §1

A short description of data set [5]: Example 3: adverse events during the multiple dose phase. It is filed as in vivo, human. The protocol:
All infusions were administered over 3 hours. Intensive plasma and urine PK sampling was obtained after dosing and assayed using validated HPLC/MS methods.
Table 7 summarizes the number (%) of subjects with at least one treatment emergent AE and number of adverse events during the multiple dose phase. […] All AEs, except 2 were mild or moderate in severity. […] There is no evidence that the addition of Compound I changed the AE profile of meropenem.

Data set [6] is described as follows: Example 2: treatment emergent adverse events, single dose phase. It is filed as in vivo, human. The conditions noted are these: Pooled Meropenem alone. The protocol: The combination of both drugs was administered on day 7. All drugs were infused over 3 hours. Plasma and urine samples were obtained and assayed using validated HPLC/MS methods.
No subjects discontinued due to AEs and no SAEs were observed.

Setting [7] is: combination Compound I/meropenem (Table F).
The mark [8] stands for this setting: 2 g q8h, Normal creatinine clearance.

“And” between values parts separate entries of the source, which are not always exact repeats. Equal values may be shown once.

As to `O=C(O)C[C@@H]1CC[C@H](NC(=O)Cc2cccs2)B(O)O1` [Compound I], the “AUC, Average Compound I Actual” value in data set [1] (setting [7]) was determined as 105.3 µg·h/mL. In addition, the “Cmax, Average Compound I Actual” value in data set [1] (setting [7]) came to 26400 ng/mL. Also, the “Half-Life, Average Compound I Actual” value in data set [1] (setting [7]) amounted to 1.5 h. In addition, the non-renal clearance entry in data set [2] is “no measurable non-renal clearance”. Besides, the “Expected Compound I free drug 24 h AUC” value is 505.1 µg·h/mL and 427.3 µg·h/mL and 493.6 µg·h/mL and 790.7 µg·h/mL and 830.3 µg·h/mL and 719.6 µg·h/mL in data set [3] (500 mg q12h, 10-19 ml/min group); 119.3 µg·h/mL and 129.1 µg·h/mL and 115.2 µg·h/mL and 228.1 µg·h/mL and 251.1 µg·h/mL and 310.6 µg·h/mL in data set [3] (500 mg q12h, 30-49 ml/min group); 70.0 µg·h/mL and 62.7 µg·h/mL and 69.2 µg·h/mL and 88.4 µg·h/mL and 70.7 µg·h/mL and 68.1 µg·h/mL and 108.4 µg·h/mL and 108.0 µg·h/mL in data set [3] (500 mg q12h, >50 mL/min group); 252.5 µg·h/mL and 213.7 µg·h/mL and 246.8 µg·h/mL and 395.4 µg·h/mL and 415.1 µg·h/mL and 359.8 µg·h/mL in data set [3] (500 mg q24h, 10-19 ml/min group); 59.6 µg·h/mL and 64.5 µg·h/mL and 57.6 µg·h/mL and 114.0 µg·h/mL and 125.5 µg·h/mL and 155.3 µg·h/mL in data set [3] (500 mg q24h, 30-49 ml/min group); 35.0 µg·h/mL and 31.4 µg·h/mL and 34.6 µg·h/mL and 44.2 µg·h/mL and 35.4 µg·h/mL and 34.1 µg·h/mL and 54.2 µg·h/mL and 54.0 µg·h/mL in data set [3] (500 mg q24h, >50 mL/min group). The “Expected Compound I free drug 24 h AUC” value in data set [3] (1 g q8h, 10-19 ml/min group) was 1515.2 µg·h/mL and 1281.9 µg·h/mL and 1480.9 µg·h/mL and 2372.2 µg·h/mL and 2490.8 µg·h/mL and 2158.8 µg·h/mL; in data set [3] (1 g q8h, 30-49 ml/min group), 357.8 µg·h/mL and 387.2 µg·h/mL and 345.5 µg·h/mL and 684.2 µg·h/mL and 753.3 µg·h/mL and 931.8 µg·h/mL; in data set [3] (1 g q8h, >50 mL/min group) it was 210.0 µg·h/mL and 188.2 µg·h/mL and 207.5 µg·h/mL and 265.2 µg·h/mL and 212.1 µg·h/mL and 204.3 µg·h/mL and 325.3 µg·h/mL and 324.0 µg·h/mL; in data set [3] (1 g q24h, 10-19 ml/min group), 505.1 µg·h/mL and 427.3 µg·h/mL and 493.6 µg·h/mL and 790.7 µg·h/mL and 830.3 µg·h/mL and 719.6 µg·h/mL; in data set [3] (1 g q24h, 30-49 ml/min group) it was 119.3 µg·h/mL and 129.1 µg·h/mL and 115.2 µg·h/mL and 228.1 µg·h/mL and 251.1 µg·h/mL and 310.6 µg·h/mL; in data set [3] (1 g q24h, >50 mL/min group) it was 70.0 µg·h/mL and 62.7 µg·h/mL and 69.2 µg·h/mL and 88.4 µg·h/mL and 70.7 µg·h/mL and 68.1 µg·h/mL and 108.4 µg·h/mL and 108.0 µg·h/mL. Also, the “Expected Compound I free drug 24 h AUC” value was 3030.3 µg·h/mL and 2563.8 µg·h/mL and 2961.8 µg·h/mL and 4744.3 µg·h/mL and 4981.6 µg·h/mL and 4317.6 µg·h/mL in data set [3] (2 g q8h, 10-19 ml/min group); 715.7 µg·h/mL and 774.5 µg·h/mL and 690.9 µg·h/mL and 1368.4 µg·h/mL and 1506.5 µg·h/mL and 1863.5 µg·h/mL in data set [3] (2 g q8h, 30-49 ml/min group); 420.0 µg·h/mL and 376.3 µg·h/mL and 415.0 µg·h/mL and 530.5 µg·h/mL and 424.2 µg·h/mL and 408.7 µg·h/mL and 650.6 µg·h/mL and 648.1 µg·h/mL in data set [3] (2 g q8h, >50 mL/min group). Besides, the “Expected Compound I free drug 24 h AUC, Mean” value in data set [3] (setting [8]) amounted to 358 µg·h/mL. Further, in data set [3] (setting [8]), the “Expected Compound I free drug 24 h AUC, Range” value is 284 to 470 µg·h/mL.

`C[C@@H](O)[C@H]1C(=O)N2C(C(=O)O)=C(S[C@@H]3CN[C@H](C(=O)N(C)C)C3)[C@H](C)[C@H]12` [meropenem, Meropenem]: in data set [4], the “efficacy, number of strains” value is “effective against 2 out of 3 strains”. Further, the “Change in Log CFU over 32 hours” value in data set [4] (P. aeruginosa PAM3377, human equivalent 2 g q8h by 3 hour infusion) is listed as 3.7 Log CFU. For the same compound, in data set [1] (setting [7]), the “AUC, Average Meropenem Actual” value amounted to 131.5 µg·h/mL; the “Cmax, Average Meropenem Actual” value was found to be 33500 ng/mL; the “Half-Life, Average Meropenem Actual” value came out at 1.4 h. In addition, in data set [1] (meropenem alone (Table E)), the “AUC, Average Meropenem Actual” value was 129.0 µg·h/mL; the “Cmax, Average Meropenem Actual” value amounted to 33900 ng/mL; the “Half-Life, Average Meropenem Actual” value is 1.3 h. Moreover, the non-renal clearance result in data set [2] is reported as “non-renal clearance assumes a greater proportion of total clearance”. Besides, in data set [5] (Pooled 2 g Meropenem), the “AEs, Number of Events” value is “[24]”; the “Moderate or Severe AEs, N subjects” value was 0; the “Subjects with at least one Treatment Emergent AE, %” value came out at 80%. In data set [5] (Pooled Meropenem (1 and 2 g)), the “AEs, Number of Events” value was “[67]”; the “Moderate or Severe AEs, % subjects” value stood at 24%; the “Moderate or Severe AEs, N subjects” value is recorded as 5; the “Moderate or Severe AEs, Number of Events” value was “[5]”. Also, the “Subjects with at least one Treatment Emergent AE, %” value in data set [5] (Pooled Meropenem (1 and 2 g)) is given as 95%. Also, in data set [5] (alone or in combination), the Mild nausea result is on record as “observed only in the subjects who received meropenem 2 g”. In data set [6], the “Headache, %” value was found to be 37%; the “Infusion site pain, %” value was determined as 10%; the “PK catheter site hematoma, %” value is 21%; the “PK catheter site pain, %” value is 10%. In data set [6], the “Subjects with TEAEs, %” value stood at 95%.

(Values after patent US20190105337A1, “METHODS OF TREATING BACTERIAL INFECTIONS” (priority 2015, published 2019).)
